Measurements from patent US20150025118A1, “ACTIVE COMPOUND COMPOSITIONS FOR VECTOR CONTROL OF INSECTICIDE-RESISTANT PESTS” (priority 2012, published 2015).

Legend:
[1] = test system: Aedes aegypti; test: Aedes test: contact on treated glazed tile, knock-down; type: in vivo
Protocol: To produce a suitable preparation of active compound combination the active compounds bendiocarb and clothianidin were dissolved in acetone (for the control group only one active compound was dissolved in acetone). The active compound combination preparation (and the active compound preparations) were pipetted onto a glazed tile and, after drying, adult mosquitoes of the species Aedes aegypti are placed onto the treated tile. The exposition time is 30 minutes.
(§1) 0.25 hours, 0.5 hours, 1 hour, 2 hour, 3 hour, 4 hour and 24 hours after contact to the treated surface, the knock-down proportion of the test animals in % is determined. Here, 100% means that all mosquitoes have been killed; 0% means that none of the mosquitoes has been killed.

[2] = test system: Anopheles gambiae (target-site-resistant and metabolic-resistant strain: RSPH); test: Target-site-resistant and metabolic-resistant Anopheles test: treated glazed tile, knock-down; type: in vivo
Protocol: (§2) The exposition time is 30 minutes.
as §1

[3] = test system: Anopheles funestus metabolic-resistant strain FUMOZ-R; test: Metabolic-resistant Anopheles test: treated glazed tile, knock-down; type: in vivo
Protocol: as §2, §1

[4] = test system: mosquitoes; conditions: alone, stated as known, cited from earlier work
[5] = Bendiocarb 0.032 mg/m^2 alone, 0.25 h after contact
[6] = Bendiocarb 0.032 mg/m^2 alone, 0.5 h after contact
[7] = Bendiocarb 0.032 mg/m^2 alone, 1 h after contact
[8] = Bendiocarb 0.032 mg/m^2 alone, 2 h after contact
[9] = Bendiocarb 0.032 mg/m^2 alone, 3 h after contact
[10] = Bendiocarb 0.032 mg/m^2 alone, 4 h after contact
[11] = Bendiocarb 0.032 mg/m^2 alone, 24 h after contact
[12] = Bendiocarb 0.16 mg/m^2 alone, 0.25 h after contact
[13] = Bendiocarb 0.16 mg/m^2 alone, 0.5 h after contact
[14] = Bendiocarb 0.16 mg/m^2 alone, 1 h after contact
[15] = Bendiocarb 0.16 mg/m^2 alone, 2 h after contact
[16] = Bendiocarb 0.16 mg/m^2 alone, 3 h after contact
[17] = Bendiocarb 0.16 mg/m^2 alone, 4 h after contact
[18] = Bendiocarb 0.16 mg/m^2 alone, 24 h after contact
[19] = Clothianidin 5 mg/m^2 alone, 0.25 h after contact
[20] = Clothianidin 5 mg/m^2 alone, 0.5 h after contact
[21] = Clothianidin 5 mg/m^2 alone, 1 h after contact
[22] = Clothianidin 5 mg/m^2 alone, 2 h after contact
[23] = Clothianidin 5 mg/m^2 alone, 3 h after contact
[24] = Clothianidin 5 mg/m^2 alone, 4 h after contact
[25] = Clothianidin 5 mg/m^2 alone, 24 h after contact
[26] = Clothianidin 20 mg/m^2 alone, 0.25 h after contact
[27] = Clothianidin 20 mg/m^2 alone, 0.5 h after contact
[28] = Clothianidin 20 mg/m^2 alone, 1 h after contact
[29] = Clothianidin 20 mg/m^2 alone, 2 h after contact
[30] = Clothianidin 20 mg/m^2 alone, 3 h after contact
[31] = Clothianidin 20 mg/m^2 alone, 4 h after contact
[32] = Clothianidin 20 mg/m^2 alone, 24 h after contact
[33] = Dinotefuran 0.8 mg/m^2 alone, 0.25 h after contact
[34] = Dinotefuran 0.8 mg/m^2 alone, 0.5 h after contact
[35] = Dinotefuran 0.8 mg/m^2 alone, 1 h after contact
[36] = Dinotefuran 0.8 mg/m^2 alone, 2 h after contact
[37] = Dinotefuran 0.8 mg/m^2 alone, 3 h after contact
[38] = Dinotefuran 0.8 mg/m^2 alone, 4 h after contact
[39] = Dinotefuran 0.8 mg/m^2 alone, 24 h after contact
[40] = Dinotefuran 4 mg/m^2 alone, 0.25 h after contact
[41] = Dinotefuran 4 mg/m^2 alone, 0.5 h after contact
[42] = Dinotefuran 4 mg/m^2 alone, 1 h after contact
[43] = Dinotefuran 4 mg/m^2 alone, 2 h after contact
[44] = Dinotefuran 4 mg/m^2 alone, 3 h after contact
[45] = Dinotefuran 4 mg/m^2 alone, 4 h after contact
[46] = Dinotefuran 4 mg/m^2 alone, 24 h after contact

## CNC(=O)Oc1cccc2c1OC(C)(C)O2 [Bendiocarb, bendiocarb]
[1]; [5]
  Effect % (knock-down): 0%
[1]; [6]
  Effect % (knock-down): 0%
[1]; [7]
  Effect % (knock-down): 0%
[1]; [8]
  Effect % (knock-down): 0%
[1]; [9]
  Effect % (knock-down): 0%
[1]; [10]
  Effect % (knock-down): 5%
[1]; [11]
  Effect % (knock-down): 0%
[1]; [12]
  Effect % (knock-down): 0%
[1]; [13]
  Effect % (knock-down): 5%
[1]; [14]
  Effect % (knock-down): 5%
[1]; [15]
  Effect % (knock-down): 5%
[1]; [16]
  Effect % (knock-down): 10%
[1]; [17]
  Effect % (knock-down): 10%
[1]; [18]
  Effect % (knock-down): 5%
[2]; Bendiocarb 0.032 mg/m^2 alone (Table 2), 0.25 h after contact
  Effect % (knock-down): 5%
[2]; Bendiocarb 0.032 mg/m^2 alone (Table 2), 0.5 h after contact
  Effect % (knock-down): 5%
[2]; Bendiocarb 0.032 mg/m^2 alone (Table 2), 1 h after contact
  Effect % (knock-down): 15%
[2]; Bendiocarb 0.032 mg/m^2 alone (Table 2), 2 h after contact
  Effect % (knock-down): 10%
[2]; Bendiocarb 0.032 mg/m^2 alone (Table 2), 3 h after contact
  Effect % (knock-down): 10%
[2]; Bendiocarb 0.032 mg/m^2 alone (Table 2), 4 h after contact
  Effect % (knock-down): 15%
[2]; Bendiocarb 0.032 mg/m^2 alone (Table 2), 24 h after contact
  Effect % (knock-down): 35%
[2]; Bendiocarb 0.032 mg/m^2 alone (Table 3), 0.25 h after contact
  Effect % (knock-down): 10%
[2]; Bendiocarb 0.032 mg/m^2 alone (Table 3), 0.5 h after contact
  Effect % (knock-down): 25%
[2]; Bendiocarb 0.032 mg/m^2 alone (Table 3), 1 h after contact
  Effect % (knock-down): 25%
[2]; Bendiocarb 0.032 mg/m^2 alone (Table 3), 2 h after contact
  Effect % (knock-down): 25%
[2]; Bendiocarb 0.032 mg/m^2 alone (Table 3), 3 h after contact
  Effect % (knock-down): 35%
[2]; Bendiocarb 0.032 mg/m^2 alone (Table 3), 4 h after contact
  Effect % (knock-down): 35%
[2]; Bendiocarb 0.032 mg/m^2 alone (Table 3), 24 h after contact
  Effect % (knock-down): 80%
[2]; Bendiocarb 0.16 mg/m^2 alone (Table 2), 0.25 h after contact
  Effect % (knock-down): 5%
[2]; Bendiocarb 0.16 mg/m^2 alone (Table 2), 0.5 h after contact
  Effect % (knock-down): 90%
[2]; Bendiocarb 0.16 mg/m^2 alone (Table 2), 1 h after contact
  Effect % (knock-down): 95%
[2]; Bendiocarb 0.16 mg/m^2 alone (Table 2), 2 h after contact
  Effect % (knock-down): 100%
[2]; Bendiocarb 0.16 mg/m^2 alone (Table 2), 3 h after contact
  Effect % (knock-down): 100%
[2]; Bendiocarb 0.16 mg/m^2 alone (Table 2), 4 h after contact
  Effect % (knock-down): 90%
[2]; Bendiocarb 0.16 mg/m^2 alone (Table 2), 24 h after contact
  Effect % (knock-down): 90%
[2]; Bendiocarb 0.16 mg/m^2 alone (Table 3), 0.25 h after contact
  Effect % (knock-down): 15%
[2]; Bendiocarb 0.16 mg/m^2 alone (Table 3), 0.5 h after contact
  Effect % (knock-down): 100%
[2]; Bendiocarb 0.16 mg/m^2 alone (Table 3), 1 h after contact
  Effect % (knock-down): 100%
[2]; Bendiocarb 0.16 mg/m^2 alone (Table 3), 2 h after contact
  Effect % (knock-down): 100%
[2]; Bendiocarb 0.16 mg/m^2 alone (Table 3), 3 h after contact
  Effect % (knock-down): 100%
[2]; Bendiocarb 0.16 mg/m^2 alone (Table 3), 4 h after contact
  Effect % (knock-down): 100%
[2]; Bendiocarb 0.16 mg/m^2 alone (Table 3), 24 h after contact
  Effect % (knock-down): 100%
[2]; Bendiocarb 0.8 mg/m^2 alone (Table 2), 0.25 h after contact
  Effect % (knock-down): 95%
[2]; Bendiocarb 0.8 mg/m^2 alone (Table 2), 0.5 h after contact
  Effect % (knock-down): 100%
[2]; Bendiocarb 0.8 mg/m^2 alone (Table 2), 1 h after contact
  Effect % (knock-down): 100%
[2]; Bendiocarb 0.8 mg/m^2 alone (Table 2), 2 h after contact
  Effect % (knock-down): 100%
[2]; Bendiocarb 0.8 mg/m^2 alone (Table 2), 3 h after contact
  Effect % (knock-down): 100%
[2]; Bendiocarb 0.8 mg/m^2 alone (Table 2), 4 h after contact
  Effect % (knock-down): 100%
[2]; Bendiocarb 0.8 mg/m^2 alone (Table 2), 24 h after contact
  Effect % (knock-down): 100%
[3]; [5]
  Effect % (knock-down): 0%
[3]; [6]
  Effect % (knock-down): 5%
[3]; [7]
  Effect % (knock-down): 5%
[3]; [8]
  Effect % (knock-down): 5%
[3]; [9]
  Effect % (knock-down): 10%
[3]; [10]
  Effect % (knock-down): 10%
[3]; [11]
  Effect % (knock-down): 40%
[3]; [12]
  Effect % (knock-down): 0%
[3]; [13]
  Effect % (knock-down): 80%
[3]; [14]
  Effect % (knock-down): 80%
[3]; [15]
  Effect % (knock-down): 45%
[3]; [16]
  Effect % (knock-down): 50%
[3]; [17]
  Effect % (knock-down): 20%
[3]; [18]
  Effect % (knock-down): 90%
[3]; Bendiocarb 0.8 mg/m^2 alone, 0.25 h after contact
  Effect % (knock-down): 100%
[3]; Bendiocarb 0.8 mg/m^2 alone, 0.5 h after contact
  Effect % (knock-down): 100%
[3]; Bendiocarb 0.8 mg/m^2 alone, 1 h after contact
  Effect % (knock-down): 100%
[3]; Bendiocarb 0.8 mg/m^2 alone, 2 h after contact
  Effect % (knock-down): 100%
[3]; Bendiocarb 0.8 mg/m^2 alone, 3 h after contact
  Effect % (knock-down): 100%
[3]; Bendiocarb 0.8 mg/m^2 alone, 4 h after contact
  Effect % (knock-down): 95%
[3]; Bendiocarb 0.8 mg/m^2 alone, 24 h after contact
  Effect % (knock-down): 100%
[4]; on concrete (alkaline)
  efficiency on concrete: not efficient

## CN/C(=N\[N+](=O)[O-])NCc1cnc(Cl)s1 [Clothianidin, clothianidin]
[1]; [19]
  Effect % (knock-down): 5%
[1]; [20]
  Effect % (knock-down): 5%
[1]; [21]
  Effect % (knock-down): 5%
[1]; [22]
  Effect % (knock-down): 5%
[1]; [23]
  Effect % (knock-down): 5%
[1]; [24]
  Effect % (knock-down): 10%
[1]; [25]
  Effect % (knock-down): 15%
[1]; [26]
  Effect % (knock-down): 0%
[1]; [27]
  Effect % (knock-down): 15%
[1]; [28]
  Effect % (knock-down): 20%
[1]; [29]
  Effect % (knock-down): 15%
[1]; [30]
  Effect % (knock-down): 10%
[1]; [31]
  Effect % (knock-down): 10%
[1]; [32]
  Effect % (knock-down): 30%
[2]; [19]
  Effect % (knock-down): 15%
[2]; [20]
  Effect % (knock-down): 25%
[2]; [21]
  Effect % (knock-down): 35%
[2]; [22]
  Effect % (knock-down): 35%
[2]; [23]
  Effect % (knock-down): 45%
[2]; [24]
  Effect % (knock-down): 50%
[2]; [25]
  Effect % (knock-down): 65%
[2]; [26]
  Effect % (knock-down): 30%
[2]; [27]
  Effect % (knock-down): 35%
[2]; [28]
  Effect % (knock-down): 40%
[2]; [29]
  Effect % (knock-down): 45%
[2]; [30]
  Effect % (knock-down): 50%
[2]; [31]
  Effect % (knock-down): 55%
[2]; [32]
  Effect % (knock-down): 65%
[2]; Clothianidin 50 mg/m^2 alone, 0.25 h after contact
  Effect % (knock-down): 10%
[2]; Clothianidin 50 mg/m^2 alone, 0.5 h after contact
  Effect % (knock-down): 35%
[2]; Clothianidin 50 mg/m^2 alone, 1 h after contact
  Effect % (knock-down): 65%
[2]; Clothianidin 50 mg/m^2 alone, 2 h after contact
  Effect % (knock-down): 65%
[2]; Clothianidin 50 mg/m^2 alone, 3 h after contact
  Effect % (knock-down): 60%
[2]; Clothianidin 50 mg/m^2 alone, 4 h after contact
  Effect % (knock-down): 65%
[2]; Clothianidin 50 mg/m^2 alone, 24 h after contact
  Effect % (knock-down): 95%
[4]; on wood
  efficiency on wood: not efficient

## CN/C(=N/CC1CCOC1)N[N+](=O)[O-] (stereo not drawn) [Dinotefuran, dinotefuran]
[2]; [33]
  Effect % (knock-down): 10%
[2]; [34]
  Effect % (knock-down): 5%
[2]; [35]
  Effect % (knock-down): 5%
[2]; [36]
  Effect % (knock-down): 10%
[2]; [37]
  Effect % (knock-down): 20%
[2]; [38]
  Effect % (knock-down): 30%
[2]; [39]
  Effect % (knock-down): 35%
[2]; [40]
  Effect % (knock-down): 15%
[2]; [41]
  Effect % (knock-down): 5%
[2]; [42]
  Effect % (knock-down): 15%
[2]; [43]
  Effect % (knock-down): 40%
[2]; [44]
  Effect % (knock-down): 35%
[2]; [45]
  Effect % (knock-down): 65%
[2]; [46]
  Effect % (knock-down): 65%
[3]; [33]
  Effect % (knock-down): 0%
[3]; [34]
  Effect % (knock-down): 0%
[3]; [35]
  Effect % (knock-down): 5%
[3]; [36]
  Effect % (knock-down): 0%
[3]; [37]
  Effect % (knock-down): 10%
[3]; [38]
  Effect % (knock-down): 15%
[3]; [39]
  Effect % (knock-down): 35%
[3]; [40]
  Effect % (knock-down): 15%
[3]; [41]
  Effect % (knock-down): 10%
[3]; [42]
  Effect % (knock-down): 10%
[3]; [43]
  Effect % (knock-down): 15%
[3]; [44]
  Effect % (knock-down): 30%
[3]; [45]
  Effect % (knock-down): 40%
[3]; [46]
  Effect % (knock-down): 55%
